Tests used:
[1] = test system: Triticum aestivum cv. Hereward leaf tips; assay: Retention of chlorophyll in excised wheat leaf tips; format: in vivo; conditions: for Activity (%) [10^−4 mol · l^−1 BAP = 100%]: chlorophyll retention at the concentration with highest activity
Method: Seeds of winter wheat, Triticum aestivum cv. Hereward, were washed under running water for 24 hours and then sown on vermiculite soaked with Knop's solution. They were placed in the grown chamber at 25° C. with a 16/8 h light period at 50 μmol.m^−2.s^−1. After 7 days, the first leaf was fully developed and the second leaf had started to grow. A tip section of the first leaf, approximately 35 mm long, was removed from 5 seedlings and trimmed slightly to a combined weight of 100 mg. The basal ends of the five leaf tips were placed in the wells of a microtiter polystyrene plate containing 150 μl of a cytokinin solution each. The entire plate was inserted into a plastic box lined with paper tissues soaked in distilled water to prevent leaf sections from drying out. After a 96 h incubation in the dark at 25° C., the leaves were removed and chlorophyll extracted by heating at 80° C. for 10 min in 5 ml of 80% ethanol (v/v). The sample volume was then restored to 5 ml by the addition of 80% ethanol (v/v). The absorbency of the extract was recorded at 665 nm. In addition, chlorophyll extracts from fresh leaves and leaf tips incubated in deionised water were measured. From the obtained data, the concentration with highest activity was selected for each compound tested. Relative activity of the compound at this concentration was calculated (Tab. 6). The activity obtained for 10^−4 M 6-benzylaminopurine (BAP) was postulated as 100%. The values shown are means of five replicates and the whole experiment was repeated twice. The cytokinins to be tested were dissolved in dimethylsulfoxide (DMSO) and the solution brought up to 10^−3M with distilled water. This stock was further diluted in distilled water to concentrations ranging from 10^−8M to 10^−4M.

[2] = test system: Amaranthus caudatus cotyledon/hypocotyl explants; assay: Amaranthus bioassay, betacyanin content; format: in vivo; conditions: betacyanin content at the concentration with highest activity
Method: Standard Amaranthus bioassay was performed with several modifications. The seeds of Amaranthus caudatus var. atropurpurea were surface-sterilised in 10% N-chlorobenzenesulfonamide (w/v) for 10 min and washed 5 times in deionized water. They were placed in 14 cm Petri dishes containing paper tissues saturated with deionized water. After 72 h of cultivation at 25° C. in darkness, the roots of the seedlings were cut off. The explants, consisting of two cotyledons and hypocotyls, were placed in 5 cm Petri dishes on two layers of filter paper soaked in 1 ml of incubation medium containing 10 μmol NA2HPO4-KH2PO4, pH 6.8, 5 μmol tyrosine and the cytokinin to be tested. There were 20 explants per dish. The procedure was carried out under a green safe light in a darkroom. After a 48 h of incubation at 25° C. in darkness, betacyanin was extracted by freezing the explants in 4 ml […] acetic acid. The concentration of betacyanin was determined by comparing the absorbance at 537 nm and 620 nm as follows: ΔA=[…] nm-A620 nm. From the obtained data, the concentration with highest activity was selected for each compound tested. Relative activity of the compound at this concentration was calculated (Tab. 6). […] The values shown in table 8 are means of five replicates and the entire test was repeated twice. The cytokinins to be tested were dissolved in dimethylsulfoxide (DMSO) and the solution brought up to 10^-3M with distilled water. This stock was further diluted in the respective media used for the biotest to concentrations ranging from 10^-8M to 10^-4M.

[3] = test system: tobacco callus Nicotiana tabacum L. cv. Wisconsin 38; assay: Cytokinin-dependent tobacco callus growth; format: cell-based; conditions: fresh callus weight at the concentration with highest activity
Method: Cytokinin-dependent tobacco callus Nicotiana tabacum L. cv. Wisconsin 38 was maintained at 25° C. in darkness on modified Murashige-Skoog medium, containing per 1 liter: 4 μmol nicotinic acid, 2.4 μmol pyridoxine hydrochloride, 1.2 μmol thiamine, 26.6 μmol glycine, 1.37 μmol glutamine, 1.8 μmol myo-inositol, 30 g of sucrose, 8 g of agar, 5.37 μmol α-naphtylacetic acid (NAA) and 0.5 μmol benzylaminopurine (BAP). Subcultivation was carried out every three weeks. Fourteen days before the bioassay, the callus tissue was transferred to the media without 6-benzylaminopurine (BAP). Biological activity was determined from the increase in fresh callus weight after four weeks of cultivation. Five replicates were prepared for each cytokinin concentration and the entire test was repeated twice. From the obtained data, the concentration with highest activity was selected for each compound tested. Relative activity of the compound at this concentration was calculated (Tab. 6). The activity obtained for 10^−4 M 6-benzylaminopurine (BAP) was postulated as 100%. The cytokinins to be tested were dissolved in dimethylsulfoxide (DMSO) and the solution brought up to 10^−3M with distilled water. This stock was further diluted in the respective media used for the biotest to concentrations ranging from 10^−8M to 10^−4M.

[4] = test system: human diploid fibroblasts (HCA cells); assay: Senescence, beta-galactosidase staining of human diploid fibroblasts; format: cell-based; conditions: for SENESCENT CELLS (%) HCA25: passage 25; for SENESCENT CELLS (%) HCA45: passage 45; for SENESCENT CELLS (%) HCA80: passage 80
Method: In this example, human diploid fibroblasts (HCA cells of various passage levels: passage 25—designated HCA25; passage 45—designated HCA45; passage 80—designated HCA80) were stained for β-galactosidase activity. The medium used for cell cultivation was removed, the cells were washed twice in […], and fixed in 2-3 ml of fixing solution comprised of a 2% formaldehyde and 0.2% glutaraldehyde in PBS. The cells were incubated at room temperature for 5 minutes, then washed twice with PBS. The cells were subsequently incubated at 37° C. (without CO2) for 1 to 16 hours in 2-3 ml of a solution comprising potassium ferricyanide (5 mM), potassium ferrocyanide (5 mM), MgCl2 (2 mM), X-gal (5-bromo-4-chloro-3-indolyl-β-D-galactopyranoside) (1 mg/ml), in citric/phosphate buffer, pH 6.0). […] In this experiment, senescent cells, but not other cells were stained blue due to the action of β-galactosidase on the substrate (FIG. 4).

Row | SMILES | Activity (%) [10^−4 mol · l^−1 BAP = 100%] [1] | activity (%) [10^−5 mol · l^−1 BAP = 100%] [2] | Activity (%) [10^−4 mol · l^−1 BAP = 100%] [3] | SENESCENT CELLS (%) HCA25 [4] [%] | SENESCENT CELLS (%) HCA45 [4] [%] | SENESCENT CELLS (%) HCA80 [4] [%] | concentration with highest activity ([1]; wheat leaf tips, 96 h in the dark)
1 | Brc1ccccc1CNc1ncnc2nc[nH]c12 [6-(2-bromobenzylamino)purine] | 52 (±14) % | 94 (±6) % | 102 (±5) % |  |  |  | 
2 | COc1cc(CNc2ncnc3nc[nH]c23)cc(OC)c1OC [6-(3,4,5-trimethoxybenzylamino)purine] | 25 (±2) % | 2 (±2) % | 19 (±3) % |  |  |  | 
3 | O=C(O)c1ccc(Nc2ncnc3nc[nH]c23)cc1Cl [3-chloro-4-carboxyanilino, 6-(3-chloro-4-carboxyanilino)purine] |  |  |  | 5 | 2 | 25 | 
4 | Nc1cc(CNc2ncnc3nc[nH]c23)ccc1Cl [3-amino-4-chlorobenzylamine, 6-(3-amino-4-chlorobenzylamino)purine] |  |  |  | 5 | 5 | 22 | 
5 | Brc1ccc(CNc2ncnc3nc[nH]c23)cc1 [6-(4-bromobenzylamino)purine] | 30 (±15) % | 17 (±7) % | 15 (±9) % |  |  |  | 
6 | COc1ccc(CNc2ncnc3nc[nH]c23)cc1OC [6-(3,4-dimethoxybenzylamino)purine] | 43 (±17) % | 27 (±6) % |  |  |  |  | 
7 | c1ccc(Nc2ncnc3nc[nH]c23)cc1 [Anilino, 6-anilinopurine] |  |  |  | 3 | 4 | 27 | 
8 | COc1cccc(CNc2ncnc3nc[nH]c23)c1OC [6-(2,3-dimethoxybenzylamino)purine] | 109 (±5) % | 22 (±3) % | 8.5 (±2) % |  |  |  | 
9 | Nc1nc(NCc2cccc(O)c2)c2[nH]cnc2n1 [2-amino-6-(3-hydroxybenzylamino)purine] | 121 (±7) % |  |  |  |  |  | 
10 | Oc1cc(CNc2ncnc3nc[nH]c23)c(O)cc1Cl [2,5-dihydroxy-4-chlorobenzylamino, 6-(2,5-dihydroxy-4-chlorobenzylamino)purine] |  |  |  | 5 | 4 | 23 | 
11 | Oc1c(Cl)ccc(CNc2ncnc3nc[nH]c23)c1O [2,3-dihydroxy-4-chlorobenzylamino, 6-(2,3-dihydroxy-4-chlorobenzylamino)purine] |  |  |  | 3 | 3 | 14 | 
12 | CC(=O)c1cccc(CNc2ncnc3nc[nH]c23)c1 [3-acetylbenzylamino, 6-(3-acetylbenzylamino)purine] |  |  |  | 5 | 5 | 28 | 
13 | O=C(O)c1cc(Nc2ncnc3nc[nH]c23)ccc1O [3-carboxy-4-hydroxyanilino, 6-(3-carboxy-4-hydroxyanilino)purine] |  |  |  | 4 | 2 | 26 | 
14 | CC(=O)Oc1cccc(CNc2ncnc3nc[nH]c23)c1 [3-acetoxybenzylamino, 6-(3-acetoxybenzylamino)purine] |  |  |  | 4 | 6 | 27 | 
15 | Brc1cccc(CNc2ncnc3nc[nH]c23)c1 [6-(3-bromobenzylamino)purine] | 48 (±6) % | 71 (±5) % | 85 (±11) % |  |  |  | 
16 | Clc1ccc(CNc2ncnc3nc[nH]c23)cc1Cl [6-(3,4-dichlorobenzylamino)purine] | 117 (±22) % | 63 (±10) % | 45 (±7) % |  |  |  | 
17 | Nc1cccc(Cl)c1CNc1ncnc2nc[nH]c12 [2-amino-6-chlorobenzylamine, 6-(2-amino-6-chlorobenzylamino)purine] |  |  |  | 3 | 4 | 16 | 
18 | CC(=O)Oc1ccccc1CNc1ncnc2nc[nH]c12 [2-acetoxybenzylamino, 6-(2-acetoxybenzylamino)purine] |  |  |  | 6 | 5 | 32 | 
19 | Oc1cccc(CNc2nc(Cl)nc3nc[nH]c23)c1 [2-chlor-6-(3-hydroxybenzylamino)purine] | 140 (±13) % |  |  |  |  |  | 10^−4 mol · l^−1
20 | Oc1c(Cl)cccc1CNc1ncnc2nc[nH]c12 [2-hydroxy-3-chlorobenzylamino, 6-(2-hydroxy-3-chloroxybenzylamino)purine] |  |  |  | 4 | 3 | 14 | 
21 | CSc1nc(NCc2cccc(O)c2)c2[nH]cnc2n1 [2-methylthio-6-(3-hydroxybenzylamino)purine] | 50.5 (±23.5) % |  |  |  |  |  | 
22 | COc1cc(O)c(CNc2ncnc3nc[nH]c23)cc1O [2,5-dihydroxy-4-methoxybenzylamino, 6-(2,5-dihydroxy-4-methoxybenzylamino)purine] |  |  |  | 5 | 3 | 22 | 
23 | CC(=O)c1ccccc1CNc1ncnc2nc[nH]c12 [2-acetylbenzylamino, 6-(2-acetylbenzylamino)purine] |  |  |  | 3 | 4 | 25 | 
24 | COc1ccc(CNc2ncnc3nc[nH]c23)c(O)c1O [2,3-dihydroxy-4-methoxybenzylamino, 6-(2,3-dihydroxy-4-methoxybenzylamino)purine] |  |  |  | 3 | 4 | 17 | 
25 | Oc1cc(Cl)cc(O)c1CNc1ncnc2nc[nH]c12 [2,6-dihydroxy-4-chlorobenzylamino, 6-(2,6-dihydroxy-4-chlorobenzylamino)purine] |  |  |  | 3 | 3 | 16 | 
26 | COc1cc(O)c(CNc2ncnc3nc[nH]c23)c(O)c1 [2,6-dihydroxy-4-methoxybenzylamino, 6-(2,6-dihydroxy-4-methoxybenzylamino)purine] |  |  |  | 4 | 3 | 13 | 
27 | NCc1ccc(Cl)c(N)c1N [2,3-diamino-4-chlorobenzylamine] |  |  |  | 4 | 3 | 17 | 
